According to US20240099343A1, “USE OF GINGERDIOL COMPOUNDS TO ENHANCE FLAVOR” (Firmenich SA, priority 2021, published 2024):

Tests used:
[1] = Sensory testing with salt reduction, mushroom-based cream soup, panel of four expert tasters; assay type: in vivo; settings: 20% reduced salt (0.684%) with 1 ppm compound, scale from 1 to 10
Experimental: Sensory testing was carried out using a panel of four (4) expert tasters, who rated the taste of the a mushroom-based cream soup with: (a) a normal amount of salt (0.855%); (b) 20% reduced salt (0.684%); and (c) 20% reduced salt (0.684%) with 1 ppm [6]-gingerdiol-diacetate. The panelists rated the soups for salt intensity, umami intensity, bitter intensity, and overall liking on a scale from 1 to 10.

[2] = Sensory testing with salt reduction, meat flavoring formulation, panel of three expert tasters; assay type: in vivo; settings: 20% reduced salt (0.646%) with 1 ppm compound, scale from 1 to 10
Experimental: Further sensory testing was carried out using a panel of three (3) expert tasters, who rated the taste of a meat flavoring formulation with: (a) a normal amount of salt ([…]); (b) 20% reduced salt (0.646%); and (c) 20% reduced salt (0.646%) with 1 ppm [6]-gingerdiol-diacetate. The panelists rated the soups for salt intensity, umami intensity, bitter intensity, and overall liking on a scale from 1 to 10.

SMILES: CCCCCC(CC(CCc1ccc(O)c(OC)c1)OC(C)=O)OC(C)=O (centres unmarked) [Gingerdiol, [6]-gingerdiol-diacetate]
- Bitter (bitter intensity) [1]: 0.0
- Overall Liking [1]: 2.3
- Saltiness (salt intensity) [1]: 3.3
- Umami (umami intensity) [1]: 3.0
- Bitter (bitter intensity) [2]: 2.3
- Overall Liking [2]: 5.0
- Saltiness (salt intensity) [2]: 5.3
- Umami (umami intensity) [2]: 4.0
